Test results published in the supplement of paper PMC10307832.

How the values were obtained:
Assay in all cases: relative viability (nuclei count vs DMSO), 5 days (fraction); higher = more cells survive
[1] = compound: C[C@]12O[C@H](C[C@]1(O)CO)n1c3ccccc3c3c4c(c5c6ccccc6n2c5c31)CNC4=O [Lestaurtinib] + CC1(C)CCC(c2ccc(Cl)cc2)=C(CN2CCN(c3ccc(C(=O)NS(=O)(=O)c4ccc(N[C@H](CCN5CCOCC5)CSc5ccccc5)c(S(=O)(=O)C(F)(F)F)c4)cc3)CC2)C1 [Navitoclax] (partner 0.5 µM)
Outline: (§1)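 Values are medians from duplicate plates. Each reflects relative viability, defined as the nuclei count of treated wells over that of vehicle wells. Lung cancer cell lines in 1536-well plates were pin-tool dosed one day after seeding with one drug alone or with a fixed anchor-drug dose plus five library-drug doses (not always all listed) in √10 steps, then fixed, stained and imaged at 4× after 5 days.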

[2] = compound: C[C@]12O[C@H](C[C@]1(O)CO)n1c3ccccc3c3c4c(c5c6ccccc6n2c5c31)CNC4=O [Lestaurtinib] + C[C@]1(O)C[C@@H](c2nc(-c3ccc4ccc(-c5ccccc5)nc4c3)c3c(N)nccn32)C1 [Linsitinib] (partner 1 µM)
Outline: as §1

[3] = compound: C1/C(=C\C2=CC=CS2)/C(=O)/C(=C/C3=CC=CS3)/C1 + CS(=O)(=O)N1CCN(Cc2cc3nc(-c4cccc5[nH]ncc45)nc(N4CCOCC4)c3s2)CC1 [Pictilisib] (partner 1 µM)
Outline: as §1

[4] = compound: C1=CC(=CC=C1C2=CC(=C(S2)NC(=O)N)C(=O)N)F [TPCA-1] + CS(=O)(=O)CCNCc1ccc(-c2ccc3ncnc(Nc4ccc(OCc5cccc(F)c5)c(Cl)c4)c3c2)o1 [Lapatinib] (partner 2 µM)
Outline: as §1

Row | Cell Line | relative viability ([1]; first compound 0.005 µM) | relative viability ([1]; first compound 0.01581 µM) | relative viability ([1]; first compound 0.05 µM) | relative viability ([1]; first compound 0.1581 µM) | relative viability ([1]; first compound 0.5 µM) | relative viability ([2]; first compound 0.005 µM) | relative viability ([2]; first compound 0.01581 µM) | relative viability ([2]; first compound 0.05 µM) | relative viability ([2]; first compound 0.1581 µM) | relative viability ([2]; first compound 0.5 µM) | relative viability ([3]; first compound 0.2 µM) | relative viability ([3]; first compound 0.6325 µM) | relative viability ([3]; first compound 2 µM) | relative viability ([3]; first compound 6.325 µM) | relative viability ([3]; first compound 20 µM) | relative viability ([4]; first compound 0.04 µM) | relative viability ([4]; first compound 0.1265 µM) | relative viability ([4]; first compound 0.4 µM) | relative viability ([4]; first compound 1.265 µM) | relative viability ([4]; first compound 4 µM)
1 | NCI-H1975 | 1.25 | 1.23 | 1.03 | 0.666 | 0.473 | 1.09 | 0.967 | 0.717 | 0.537 | 0.302 | 0.314 | 0.265 | 0.328 | 0.26 | 0.265 | 0.941 | 0.75 | 0.906 | 0.714 | 0.494
2 | Calu-6 | 1.01 | 0.797 | 0.506 | 0.468 | 0.106 | 0.908 | – | 0.555 | 0.262 | 0.218 | 1.04 | 1.05 | 0.955 | 0.885 | 0.82 | 1.15 | 1.04 | 1.01 | 0.956 | 0.91
3 | NCI-H3122 | 1.13 | 1.1 | 1.12 | 1.12 | 0.536 | 1.11 | 1.09 | 1.01 | 1.08 | 0.527 | 0.681 | 0.579 | 0.718 | 0.466 | 0.642 | 1.03 | 0.939 | 0.985 | 1.05 | 0.976
4 | NCI-H2347 | 0.835 | 0.87 | 0.575 | 0.526 | 0.42 | 1.06 | 1.05 | 0.86 | 0.575 | 0.55 | 0.652 | 0.63 | 0.928 | 0.889 | 0.446 | 1.07 | 0.739 | 0.963 | 0.78 | 0.896
5 | HCC-44 | 0.88 | 1.06 | 0.925 | 1.12 | 0.62 | 0.597 | 0.725 | 0.577 | 0.88 | 0.366 | 0.624 | 0.605 | 0.693 | 0.591 | 0.79 | 0.974 | 0.961 | 1 | 0.913 | 0.904
6 | HCC-78 | 0.897 | 0.906 | 0.533 | 0.333 | 0.211 | 0.53 | 0.419 | 0.413 | 0.225 | 0.234 | 0.197 | 0.216 | 0.288 | 0.216 | 0.209 | 0.628 | 0.35 | 0.718 | 0.672 | 0.0936
7 | COR-L23 | 1.14 | 1.12 | – | 0.62 | 0.184 | 1 | 0.858 | – | 0.471 | 0.153 | 0.765 | 0.827 | 0.922 | 0.674 | 0.892 | 1.09 | 0.859 | 0.903 | 1.09 | 0.678
8 | NCI-H1993 | 1.16 | 0.991 | 0.846 | 0.632 | 0.7 | 0.702 | 0.673 | 0.713 | 0.698 | 0.573 | 0.877 | 0.793 | 0.851 | 0.684 | 0.79 | 0.855 | – | 0.735 | 0.765 | 1.11
9 | NCI-H2405 | 1 | 0.86 | 0.889 | 0.55 | 0.216 | 0.934 | 0.703 | 0.674 | 0.612 | 0.241 | 0.491 | 0.386 | 0.572 | 0.452 | 0.416 | 1.19 | 0.915 | 1.1 | – | 0.949
10 | NCI-H2126 | 0.924 | 0.914 | 0.854 | 0.632 | 0.75 | 0.725 | 0.735 | 0.573 | 0.605 | 0.585 | 0.511 | 0.477 | 0.505 | 0.485 | 0.488 | 0.827 | 0.736 | 0.808 | 0.749 | 0.669
11 | NCI-H358 | – | – | – | – | – | 0.622 | 0.494 | 0.311 | 0.301 | 0.187 | 0.37 | 0.312 | 0.412 | 0.182 | 0.453 | 0.479 | 0.428 | 0.462 | 0.361 | 0.334
12 | ABC-1 | – | – | – | – | – | 0.834 | 0.993 | 0.603 | 0.536 | 0.165 | 0.896 | 0.64 | 0.882 | 0.631 | 0.658 | 1.19 | 1.06 | 1.22 | 1.21 | 0.854
13 | LCLC-103H | – | – | – | – | – | 1.07 | 1.12 | 0.697 | 0.705 | 0.6 | 0.573 | 0.57 | 0.757 | 0.483 | 0.551 | – | – | – | – | –
14 | NCI-H1563 | – | – | – | – | – | 1.25 | 1.17 | 1.16 | 1.22 | 0.736 | 0.753 | 0.678 | 0.634 | 0.662 | 0.636 | 1.08 | 0.943 | 0.919 | 0.736 | 0.795
15 | NCI-H650 | – | – | – | – | – | 0.79 | 0.915 | 0.503 | 0.455 | 0.179 | 0.998 | 0.801 | 0.834 | 0.821 | 0.938 | 1.03 | 1.05 | 0.93 | 0.357 | 0.487
16 | NCI-H1650 | 1.24 | 1.37 | 1.31 | 1.56 | 0.503 | – | – | – | – | – | 0.618 | 0.584 | 0.672 | 0.567 | 0.598 | 0.945 | 0.713 | 0.921 | 0.791 | 0.219
17 | NCI-H661 | – | – | – | – | – | 0.543 | 0.609 | 0.556 | 0.474 | 0.262 | 0.398 | 0.524 | 0.525 | 0.373 | 0.398 | 0.632 | 0.448 | 0.562 | 0.522 | 0.387
18 | NCI-H441 | 0.48 | 0.575 | 0.571 | 0.448 | 0.313 | 0.446 | 0.547 | 0.182 | 0.339 | 0.27 | 0.523 | 0.418 | 0.541 | 0.489 | 0.523 | – | – | – | – | –
